pIC50: −log10 of the molar value. Read-outs that look alike come from different tables or passages of the source.
Legend:
[1] = tested on: Pseudomonas aeruginosa PA14; experiment: Static peg assay for prevention of biofilm formation (Calgary device, crystal violet); format: cell-based
Procedure: (§1) Evaluation of the biofilm inhibitory activity of some substituted 2-amino-1H-imidazoles of the invention was carried out by growing up biofilms of S. Typhimurium ATCC14028 or SL1344 or Pseudomonas aeruginosa PA14 in the presence of different concentrations (1/2 dilution series) of biofilm inhibitors, by using the Calgary biofilm device. After an incubation period of 24 hours at 25° C. or 37° C. or 48 hours at 16° C. the biofilms were visualized by crystal violet staining. In the next step the stain was extracted from the biofilm with 30% acetic acid. The absorbance of the resolubilized stain at 570 nm is a measure of the amount of biofilm formed.
The device used for Pseudomonas aeruginosa biofilm formation is the same platform carrying polystyrene pegs as described above for Salmonella Typhimurium.
Two-fold serial dilutions of the compounds in 100 μl liquid broth per well were prepared in the microtiter plate. Subsequently, an overnight culture of P. aeruginosa PA14 (grown up in TSB medium) was diluted 1:100 into liquid broth and 100 μl was added to each well of the microtiter plates, resulting in a total amount of 200 μl medium per well. The pegged lid was placed on the microtiter plate and the plate was incubated for 24 hours at 25° C., 30° C. or 37° C. without shaking. During this incubation period biofilms were formed on the surface of the pegs. The liquid broth used for the tests at 25° C. was TSB 1/20. The tests at 37° C. were performed in CFA and/or LBNS broth. During incubation at 30° C. and 37° C. the plates were placed in a humidity controlled container to prevent evaporation of the growth medium. Quantification of biofilm formation was performed similarly as described previously for the S. Typhimurium biofilm assays.
as §1, with “imidazo[1,2-a]pyrimidinium bromide salts” for “2-amino-1H-imidazoles”
as §1, with “substituted imidazo[1,2-a]-pyrimidinium bromide and perchlorate salts produced according to examples 3 and 5” for “substituted 2-amino-1H-imidazoles of the invention”, “C.” for “C. or 37° C. or 48 hours at 16° C.”, “nm was taken as” for “nm is”

S. Typhimurium ATCC14028 = experiment: as above; format: cell-based, Salmonella Typhimurium
Procedure: as §1
In examples 2 and 3, the following materials and methods were used.
The device used for biofilm formation is a platform carrying 96 polystyrene pegs (Nunc no. 445497) that fits as a microtiter plate lid with a peg hanging into each microtiter plate well (Nunc no. 269789). Biofilm formation assays were carried out at 16° C., 25° C. and 37° C.
For biofilm assays at 16° C. and 25° C., two-fold serial dilutions of the compounds in 100 μl liquid TSB 1/20 broth per well were prepared in the microtiter plate. Subsequently, an overnight culture of S. Typhimurium ATCC14028 or SL1344 (grown up in LB medium) was diluted 1:100 into TSB 1/20 broth and 100 μl (ca. 10^6 cells) was added to each well of the microtiter plates, resulting in a total amount of 200 μl medium per well. The pegged lid was placed on the microtiter plate and the plate was incubated for 48 hours at 16° C. or for 24 hours at 25° C. without shaking. During this incubation period biofilms were formed on the surface of the pegs. In case of the assay at 16° C., after 24 hours the lid was transferred into a new plate with medium and the specific molecules used for testing. […] For quantification of biofilm formation, the pegs were washed once in 200 μl phosphate buffered saline (PBS). The remaining attached bacteria were stained for 30 minutes with 200 μl 0.1% (w/v) crystal violet in an isopropanol/methanol/PBS solution (v/v 1:1:18). Excess stain was rinsed off by placing the pegs in a 96-well plate filled with 200 μl distilled water per well. After the pegs were air dried (30 min), the dye bound to the adherent cells was extracted with 30% glacial acetic acid (200 μl). The OD570 of each well was measured using the VERSAmax microtiter plate reader. The IC50 value for each compound was determined from concentration gradients in two or three independent experiments (with 2 or 3 repeats per experiment), by using the GraphPad software of Prism.
For biofilm assays at 37° C., two-fold serial dilutions of the compounds in 50 μl liquid CFA broth per well were prepared in the microtiter plate. Subsequently, an overnight culture of S. Typhimurium ATCC 14028 was diluted 1:100 into CFA broth and 100 μl (ca. 10^6 cells) was added to each well of the microtiter plates, resulting in a total amount of 150 μl medium per well. The pegged lid was placed on the microtiter plate and the plate was incubated for 24 hours at 37° C. without shaking. During incubation the plates were placed in a humidity controlled container to prevent evaporation of the growth medium. Quantification of biofilm formation was performed similarly as described above for the assays at 16° C. and 25° C.
as §1, with “imidazo[1,2-a]pyrimidinium bromide salts” for “2-amino-1H-imidazoles”

[2] = 25° C., 24 hours, Table 15, read-out: (2) IC50 (biofilm inhibition)
[3] = 25° C., Table 16, read-out: P. aeruginosa IC50 (biofilm formation)
[4] = 25° C., 24 hours, Table 15, read-out: (1) IC50 (biofilm inhibition)
[5] = 25° C., Table 16, read-out: S. Typhimurium IC50 (biofilm formation)
[6] = Pseudomonas aeruginosa, PA14, 24 h, read-out: (2) IC50 (biofilm inhibition)
[7] = Salmonella enterica, 24 h, read-out: (1) IC50 (biofilm inhibition)

Compound	pIC50 [1, 2]	pIC50 [1, 3]	pIC50 (S. Typhimurium ATCC14028; [4])	pIC50 (S. Typhimurium ATCC14028; [5])	also measured
CCCCCCCN1c2nccc[n+]2CC1(O)c1ccc(Cl)cc1 (racemic) [Compound 20]	~4.90	4.43	5.18	5.17	
CCCCCCCCN1c2nccc[n+]2CC1(O)c1ccc(Cl)cc1 (racemic) [Compound 21]	4.93	4.66	5.16	5.15	
CCCCCCCCCN1c2nccc[n+]2CC1(O)c1ccc(Cl)cc1 (racemic) [Compound 22]	4.22	4.68	4.74	4.74	
CCCCCCCCCCN1c2nccc[n+]2CC1(O)c1ccc(Cl)cc1 (racemic) [Compound 23]	3.71	4.18	4.29	4.29	
CCCCCCCCCCCN1c2nccc[n+]2CC1(O)c1ccc(Cl)cc1 (racemic) [Compound 24]	3.69	< 3.10	4.21	4.21	
CCCCCCCCCCCCN1c2nccc[n+]2CC1(O)c1ccc(Cl)cc1 (racemic) [Compound 25]	3.92	< 3.10	3.91	3.91	
CCCCCCCCCCCCCN1c2nccc[n+]2CC1(O)c1ccc(Cl)cc1 (racemic) [Compound 26]	4.23	< 3.10	3.50	3.50	
CCCCCCCCCCCCCCN1c2nccc[n+]2CC1(O)c1ccc(Cl)cc1 (racemic) [Compound 27]		< 3.10		< 3.10	
CCN1c2nccc[n+]2CC1(O)c1ccc([N+](=O)[O-])cc1 (racemic) [Compound 29]		< 3.10		3.24	
CC(C)N1c2nccc[n+]2CC1(O)c1ccc([N+](=O)[O-])cc1 (racemic) [Compound 30]		3.72		3.33	
CCCCCCCC[n+]1c(-c2cccc3ccccc23)cn2cccnc21.[O-][Cl+3]([O-])([O-])[O-] [1-octyl-2-(1-naphthalenyl)-imidazo[1,2-a]-pyrimidin-1-ium perchlorate]					pIC50 [1, 6]: 5.17; pIC50 (S. Typhimurium ATCC14028; [7]): ~5.18
CCCCCCCC[n+]1c(-c2ccc(S(C)(=O)=O)cc2)cn2cccnc21.[O-][Cl+3]([O-])([O-])[O-] [1-octyl-2-(4-methylsulfonylphenyl)-imidazo[1,2-a]pyrimidin-1-ium perchlorate]					pIC50 [1, 6]: 4.30; pIC50 (S. Typhimurium ATCC14028; [7]): 4.09
CCCCCCCC[n+]1c(-c2ccc(-c3ccc([N+](=O)[O-])cc3)cc2)cn2cccnc21.[O-][Cl+3]([O-])([O-])[O-] [1-octyl-2-(4′-nitro[1,1-biphenylyl]-4-yl)-imidazo[1,2-a]pyrimidin-1-ium perchlorate]	5.98		5.83		
CCCCCCCC[n+]1c(-c2ccc(Cl)c(Cl)c2)cn2cccnc21.[O-][Cl+3]([O-])([O-])[O-] [2-(3,4-Dichlorophenyl)-1-octylimidazo[1,2-a]pyrimidin-1-ium perchlorate]					pIC50 [1, 6]: 4.90; pIC50 (S. Typhimurium ATCC14028; [7]): 5.42
CCCCCCCC[n+]1c(-c2cccc(Br)c2)cn2cccnc21.[O-][Cl+3]([O-])([O-])[O-] [2-(3-Bromophenyl)-1-octylimidazo[1,2-a]pyrimidin-1-ium perchlorate]					pIC50 [1, 6]: 5.16; pIC50 (S. Typhimurium ATCC14028; [7]): 5.13
CCCCCCCC[n+]1c(-c2ccc(F)cc2)cn2cccnc21.[O-][Cl+3]([O-])([O-])[O-] [2-(4-Fluorophenyl)-1-octylimidazo[1,2-a]pyrimidin-1-ium perchlorate]					pIC50 [1, 6]: 4.71; pIC50 (S. Typhimurium ATCC14028; [7]): 4.45
CCCCCCCC[n+]1c(-c2ccc(OC)cc2)cn2cccnc21.[O-][Cl+3]([O-])([O-])[O-] [2-(4-Methoxyphenyl)-1-octylimidazo[1,2-a]pyrimidin-1-ium perchlorate]					pIC50 [1, 6]: 5.06; pIC50 (S. Typhimurium ATCC14028; [7]): 4.46
CCCCCCCC[n+]1c(-c2ccc(SC)cc2)cn2cccnc21.[O-][Cl+3]([O-])([O-])[O-] [2-(4-Methylthiophenyl)-1-octylimidazo[1,2-a]pyrimidin-1-ium perchlorate]					pIC50 [1, 6]: 5.03; pIC50 (S. Typhimurium ATCC14028; [7]): 4.69
CCCCN1c2nccc[n+]2CC1(O)c1ccc([N+](=O)[O-])cc1 (centres unmarked) [Compound 31]		3.84		3.53	
CC(C)CN1c2nccc[n+]2CC1(O)c1ccc([N+](=O)[O-])cc1 (centres unmarked) [Compound 32]		3.72		3.49	
CC(C)(C)N1c2nccc[n+]2CC1(O)c1ccc([N+](=O)[O-])cc1 (centres unmarked) [Compound 33]		4.38		3.68	
CCCCCCCCN1c2nccc[n+]2CC1(O)c1ccc([N+](=O)[O-])cc1 (centres unmarked) [Compound 35]	5.12	4.71	5.18	5.18	
CCCCCCCCCCN1c2nccc[n+]2CC1(O)c1ccc([N+](=O)[O-])cc1 (centres unmarked) [Compound 36]		4.65	5.00	5.00	
CCCCCCCCN1c2nccc[n+]2CC1(O)c1ccc(F)cc1 (centres unmarked) [Compound 39]	5.15	3.97	5.12	5.12	
CCCCCCCCN1c2nccc[n+]2CC1(O)c1ccc(OC)cc1 (centres unmarked) [Compound 46]	4.87	4.04	4.98	4.98	
CCCCCCCCN1c2nccc[n+]2CC1(O)c1ccc(Cl)c(Cl)c1 (centres unmarked) [Compound 49]	~4.91	4.94	5.15	5.15	
CCCCCCCCN1c2nccc[n+]2CC1(O)c1ccc(SC)cc1 (centres unmarked) [Compound 51]	4.54		~4.88		pIC50 ([1]; 25° C., Table 17, read-out: P. aeruginosa IC50 (biofilm formation)): 4.44; pIC50 (S. Typhimurium ATCC14028; 25° C., Table 17, read-out: S. Typhimurium IC50 (biofilm formation)): ~4.88
CCCCCCCCN1c2nccc[n+]2C[C@@]1(O)c1cccc2ccccc12 [Compound 52]					pIC50 ([1]; Pseudomonas aeruginosa, PA14, 25° C., Table 17, read-out: P. aeruginosa IC50 (biofilm formation)): 4.82; pIC50 ([1]; Pseudomonas aeruginosa, PA14, 24 h, 25° C., 24 hours, Table 15, read-out: (2) IC50 (biofilm inhibition)): 4.78; pIC50 (S. Typhimurium ATCC14028; Salmonella enterica, 25° C., 24 hours, Table 15, read-out: (1) IC50 (biofilm inhibition)): 4.83; pIC50 (S. Typhimurium ATCC14028; Salmonella enterica, 25° C., Table 17, read-out: S. Typhimurium IC50 (biofilm formation)): 4.83

Source: patent US20130029981A1, “COMPOUNDS, COMPOSITIONS, AND METHODS FOR CONTROLLING BIOFILMS” (Katholieke Universiteit Leuven, priority 2009, published 2013)
